Results reported in ChEMBL document CHEMBL1201862, “PubChem BioAssay data set” (2004).
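Briefly, cells in 96-well plates were exposed to five compound concentrations for 48 h, and endpoints were estimated by linear interpolation. Here, GI50 denotes the concentration required for 50% inhibition of growth.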 Active and inactive are the calls of the source. Rule as the data show it: active = GI50 up to about 1.1 µM and inactive = higher.

Legend:
Assay in all cases: NCI anticancer screen, dose series, 48 h
HOP-62 = tested on: HOP-62
SK-MEL-2 = tested on: SK-MEL-2
MDA-N = tested on: MDA-N
OVCAR-4 = tested on: OVCAR-4
NCI/ADR-RES = tested on: NCI/ADR-RES
OVCAR-8 = tested on: OVCAR-8
HCC 2998 = tested on: HCC 2998
NCI-H460 = tested on: NCI-H460
UACC-62 = tested on: UACC-62
UACC-257 = tested on: UACC-257
SR = tested on: SR
RPMI-8226 = tested on: RPMI-8226
BT-549 = tested on: BT-549
HCT-116 = tested on: HCT-116
MDA-MB-435 = tested on: MDA-MB-435
T47D = tested on: T47D
MCF7 = tested on: MCF7
MDA-MB-231 = tested on: MDA-MB-231
HOP-92 = tested on: HOP-92
SK-OV-3 = tested on: SK-OV-3

Row | SMILES | GI50 (HOP-62) | GI50 (SK-MEL-2) | GI50 (MDA-N) | GI50 (OVCAR-4) | GI50 (NCI/ADR-RES) | GI50 (OVCAR-8) | GI50 (HCC 2998) | GI50 (NCI-H460) | GI50 (UACC-62) | GI50 (UACC-257) | GI50 (SR) | GI50 (RPMI-8226) | GI50 (BT-549) | GI50 (HCT-116) | GI50 (MDA-MB-435) | GI50 (T47D) | GI50 (MCF7) | GI50 (MDA-MB-231) | GI50 (HOP-92) | GI50 (SK-OV-3)
1 | Nc1ccc(Cc2ccc(/N=C\c3ccc(OCc4cccc(COc5ccc(/C=N\c6ccc(Cc7ccc(N)cc7)cc6)cc5)n4)cc3)cc2)cc1 | 37.5 µM (inactive) | 39.2 µM (inactive) | > 100 µM (inactive) | 85.1 µM (inactive) | > 100 µM (inactive) | 62.8 µM (inactive) | > 100 µM (inactive) | > 100 µM (inactive) | > 100 µM (inactive) | > 100 µM (inactive) | > 100 µM (inactive) | > 100 µM (inactive) | > 100 µM (inactive) | > 100 µM (inactive) | > 100 µM (inactive) | 68.9 µM (inactive) | > 100 µM (inactive) | 27 µM (inactive) |  | 
2 | Cc1ccc(S(=O)(=O)c2[nH]cc(/C(=C\C3CCCCC3)[N+](=O)[O-])c2C2CCCCC2)cc1 | 1.41 µM (inactive) | 0.377 µM (active) | 0.301 µM (active) | 0.388 µM (active) | 0.426 µM (active) | 0.368 µM (active) | 0.682 µM (active) | 1.22 µM (inactive) | 0.234 µM (active) | 0.393 µM (active) | 0.281 µM (active) | 0.251 µM (active) | 0.28 µM (active) | 0.216 µM (active) | 0.398 µM (active) | 0.303 µM (active) |  | 0.217 µM (active) | 0.292 µM (active) | 
3 | CC1=C(C(=O)NCCCN(CCO)CCO)CC(C(=O)NCCCN(CCO)CCO)=C(C)N1 | > 100 µM (inactive) | > 100 µM (inactive) | 86.1 µM (inactive) | > 100 µM (inactive) | > 100 µM (inactive) | > 100 µM (inactive) | > 100 µM (inactive) | > 100 µM (inactive) | > 100 µM (inactive) | > 100 µM (inactive) |  | 76 µM (inactive) | > 100 µM (inactive) | > 100 µM (inactive) | 56 µM (inactive) | 62.1 µM (inactive) | > 100 µM (inactive) | 40.7 µM (inactive) | 54.6 µM (inactive) | > 100 µM (inactive)
4 | O=c1[nH]c(=O)n(C2CC(O)C(CO)O2)cc1OCC1CCCCC1 (stereo not drawn) | > 100 µM (inactive) |  | > 100 µM (inactive) | > 100 µM (inactive) | > 100 µM (inactive) | > 100 µM (inactive) |  | > 100 µM (inactive) | > 100 µM (inactive) | > 100 µM (inactive) | > 100 µM (inactive) |  | > 100 µM (inactive) | > 100 µM (inactive) | > 100 µM (inactive) | > 100 µM (inactive) | > 100 µM (inactive) | > 100 µM (inactive) |  | > 100 µM (inactive)
5 | CC1=C2C3=C(C)C(=O)C(C)(C)CC[C@@]3(C)[C@]2(C)CCC(C)(C)C1=O | > 100 µM (inactive) |  | > 100 µM (inactive) | > 100 µM (inactive) | > 100 µM (inactive) | > 100 µM (inactive) |  |  | > 100 µM (inactive) | > 100 µM (inactive) | > 100 µM (inactive) | > 100 µM (inactive) | > 100 µM (inactive) | > 100 µM (inactive) | > 100 µM (inactive) | > 100 µM (inactive) | > 100 µM (inactive) | > 100 µM (inactive) |  | > 100 µM (inactive)
6 | CCCCCC/C=C\CCCCCCCCCc1cccc(OC)c1O | > 100 µM (inactive) | > 100 µM (inactive) | 85.9 µM (inactive) |  | 41.2 µM (inactive) | 38.3 µM (inactive) |  |  | > 100 µM (inactive) | > 100 µM (inactive) | > 10 µM (inactive) | > 100 µM (inactive) | > 100 µM (inactive) | 44.2 µM (inactive) | > 100 µM (inactive) | > 100 µM (inactive) | 75.5 µM (inactive) | > 100 µM (inactive) |  | > 100 µM (inactive)
7 | COC(=O)C(Cc1c[nH]c2ccccc12)NP(=O)(O)OCC1OC(n2ccc(N)nc2=O)C(O)C1O (stereo not drawn) | > 100 µM (inactive) |  | > 100 µM (inactive) | > 100 µM (inactive) | > 100 µM (inactive) | > 100 µM (inactive) |  | > 100 µM (inactive) | 85.9 µM (inactive) | > 100 µM (inactive) | 82.2 µM (inactive) | > 100 µM (inactive) | > 100 µM (inactive) | > 100 µM (inactive) | > 100 µM (inactive) | > 100 µM (inactive) | > 100 µM (inactive) | > 100 µM (inactive) | > 100 µM (inactive) | 
8 | COc1cc(O)c(/C=N/N=C(\N)NO)c(OC)c1 | 9.93 µM (inactive) | > 10 µM (inactive) | > 10 µM (inactive) | > 10 µM (inactive) | 5.04 µM (inactive) | > 10 µM (inactive) | > 10 µM (inactive) | 4.08 µM (inactive) | 9.71 µM (inactive) | > 10 µM (inactive) |  | > 10 µM (inactive) | > 10 µM (inactive) | 6.19 µM (inactive) | > 10 µM (inactive) | > 10 µM (inactive) | > 10 µM (inactive) | > 10 µM (inactive) | > 10 µM (inactive) | > 10 µM (inactive)
9 | O=C(N1CCOCC1)C1(c2ccccc2)CCNCC1 | > 100 µM (inactive) | > 100 µM (inactive) | > 100 µM (inactive) | > 100 µM (inactive) | > 100 µM (inactive) | > 100 µM (inactive) |  | > 100 µM (inactive) | > 100 µM (inactive) | > 100 µM (inactive) | > 100 µM (inactive) | > 100 µM (inactive) | > 100 µM (inactive) | > 100 µM (inactive) | > 100 µM (inactive) | > 100 µM (inactive) | > 100 µM (inactive) | > 100 µM (inactive) | > 100 µM (inactive) | > 100 µM (inactive)
10 | CC(=O)O[C@H]1CC[C@@]2(C)C(=CC[C@@H]3[C@@H]2CC[C@]2(C)c4nc(N)c(C#N)cc4C[C@@H]32)C1 | 8.34 µM (inactive) | 35.9 µM (inactive) | 29 µM (inactive) | 19.9 µM (inactive) |  | 30.3 µM (inactive) | > 55.3 µM (inactive) | 19.8 µM (inactive) | 40.6 µM (inactive) | 27.2 µM (inactive) |  | 5.83 µM (inactive) | 33.3 µM (inactive) | 18.2 µM (inactive) | 33.7 µM (inactive) | 11.4 µM (inactive) | 33.6 µM (inactive) | 44.2 µM (inactive) | 33 µM (inactive) | 38.2 µM (inactive)
11 | O=C(O)C1CCCCN1C(=O)Cc1c[nH]c2ccccc12 (stereo not drawn) | > 100 µM (inactive) | > 100 µM (inactive) | > 100 µM (inactive) | > 100 µM (inactive) | > 100 µM (inactive) | > 100 µM (inactive) | > 100 µM (inactive) | > 100 µM (inactive) | > 100 µM (inactive) | > 100 µM (inactive) |  | > 100 µM (inactive) | > 100 µM (inactive) | > 100 µM (inactive) | > 100 µM (inactive) | > 100 µM (inactive) | > 100 µM (inactive) | 29 µM (inactive) | > 100 µM (inactive) | > 100 µM (inactive)
12 | CC(=O)OCCn1c(Cc2ccc(C)cc2)nn(C(C)=O)c1=O |  | > 100 µM (inactive) | > 100 µM (inactive) | > 100 µM (inactive) | > 100 µM (inactive) | > 100 µM (inactive) | > 100 µM (inactive) | > 100 µM (inactive) | > 100 µM (inactive) | > 100 µM (inactive) |  | > 100 µM (inactive) | > 100 µM (inactive) | > 100 µM (inactive) | > 100 µM (inactive) | > 100 µM (inactive) | > 100 µM (inactive) | > 100 µM (inactive) | > 100 µM (inactive) | > 100 µM (inactive)
13 | Cc1ncc([N+](=O)[O-])n1CCNC(=O)CCCn1ccnc1[N+](=O)[O-] | > 100 µM (inactive) | > 100 µM (inactive) | > 100 µM (inactive) | > 100 µM (inactive) |  | > 100 µM (inactive) | > 100 µM (inactive) | > 100 µM (inactive) | > 100 µM (inactive) | > 100 µM (inactive) | > 100 µM (inactive) | > 100 µM (inactive) | > 100 µM (inactive) | > 100 µM (inactive) | > 100 µM (inactive) | > 100 µM (inactive) | > 100 µM (inactive) | > 100 µM (inactive) |  | 
14 | Oc1[nH]c(Nc2cc(Cl)cc(Cl)c2)nc2ncnc1-2 | > 75 µM (inactive) | > 75 µM (inactive) | > 75 µM (inactive) | > 75 µM (inactive) | > 75 µM (inactive) | > 75 µM (inactive) | > 75 µM (inactive) | > 75 µM (inactive) | > 75 µM (inactive) | > 75 µM (inactive) |  | > 75 µM (inactive) | > 75 µM (inactive) | > 75 µM (inactive) | > 75 µM (inactive) | > 75 µM (inactive) | > 75 µM (inactive) | > 75 µM (inactive) | > 75 µM (inactive) | > 75 µM (inactive)
15 | CC(=O)Oc1ccccc1C(=O)Nc1ncc([N+](=O)[O-])s1 [NITAZOXANIDE] | 22.3 µM (inactive) | 16.3 µM (inactive) | 27.3 µM (inactive) | 28.7 µM (inactive) | 10.3 µM (inactive) | 15.7 µM (inactive) | 13 µM (inactive) | 17.1 µM (inactive) | 4.33 µM (inactive) | 17.2 µM (inactive) |  | 10.3 µM (inactive) | 14.4 µM (inactive) | 11.2 µM (inactive) | 22.8 µM (inactive) | 13.7 µM (inactive) | 10.2 µM (inactive) | 21.8 µM (inactive) | 3.22 µM (inactive) | 14.7 µM (inactive)
